# Reference: article PMC12040169 (PLOS Biology, 2025)
# Assay: in vitro
# Conditions: human, hela cells, % viability
smiles,measurement,value
Nc1ncc(-c2cccc(O)c2)nc1-c1ccc(C(=O)NCCO)cc1 [CBK064143],"viability at 28.5 h, 10 µM",114%
CC(C)(C)c1cc(C(=O)Cn2c(=N)n(Cc3ccccc3)c3ccccc32)cc(C(C)(C)C)c1O [CBK262480B],"viability at 28.5 h, 10 µM",97.5%
CC(C)C(=O)N1N=C2CCCCC2C1(O)C(F)(F)F (centres unmarked) [CBK028091],"viability at 28.5 h, 10 µM",93.2%
O=C(NCCOc1ccccc1Cc1ccccc1)c1cncc(Br)c1 [CBK266581],"viability at 28.5 h, 10 µM",103%
O=C(CC1(O)C(=O)N(CN2CCOCC2)c2ccccc21)c1ccc2c(c1)OCO2 (centres unmarked) [CBK269639],"viability at 28.5 h, 10 µM",99.3%
Cc1ccn(CCNCc2cc(-c3ccc(Cl)cc3)c[nH]c2=O)n1 [CBK284727],"viability at 28.5 h, 10 µM",88.4%
Nc1ccccc1C(=O)NCc1ccncc1 [CBK057024],"viability at 28.5 h, 10 µM",90.1%
CN(C)c1ccc(-c2nc(N(C)C)n(C)n2)cn1 [CBK306858],"viability at 28.5 h, 10 µM",90.1%
CCOC(=O)CCCNC(=O)N1CCCC(C(=O)N(CC)CC)C1 (centres unmarked) [CBK156158],"viability at 28.5 h, 10 µM",92.3%
Cc1ccccc1C(=O)NC(=S)Nc1sc2c(c1C#N)CCCC2 [CBK264403],"viability at 28.5 h, 10 µM",98.3%
NC(=O)C1(N2CCCCC2)CCN(C(=O)CSc2nnc(-c3ccccc3)n2C2CCCCC2)CC1 [CBK266219],"viability at 28.5 h, 10 µM",101%
CC(C)Oc1ccccc1CN(C)C(C)c1ccc(S(N)(=O)=O)cc1 (centres unmarked) [CBK305436],"viability at 28.5 h, 10 µM",94.4%
CN(C(=O)[C@H]1CCCC[C@H]1C(=O)O)C1CCS(=O)(=O)C1 (some centres unmarked) [CBK286782],"viability at 28.5 h, 10 µM",106%
COc1ccc(-c2cc(=O)oc3cc(OCC(=O)c4cc5ccccc5o4)ccc23)cc1 [CBK265634],"viability at 28.5 h, 10 µM",97.7%
c1ccc(CCNc2cc(-c3cccc4ccccc34)ncn2)nc1 [CBK037762],"viability at 28.5 h, 10 µM",94.5%
N#CC1=C(N)N2C(=C(C#N)C13CCN(Cc1ccccc1)CC3)Nc1ccccc12 [CBK267241],"viability at 28.5 h, 10 µM",108%
C[N+]1(C)CCN(C(=O)CCC(=O)N2CC[N+](C)(C)CC2)CC1 [CBK278200I],"viability at 28.5 h, 10 µM",94.4%
C=C(C)Cn1c(Cc2ccccc2)nnc1SC(C)C [CBK200083],"viability at 28.5 h, 10 µM",92%
Cc1cc(C)c2nc(NC(=O)c3ccc(=O)n(CC(=O)N(C)c4ccccc4)c3)sc2c1 [CBK286025],"viability at 28.5 h, 10 µM",91.5%
CC(=O)Oc1ccccc1C(=O)Oc1ccc2c(c1)c(C(C)=O)c(C)n2-c1ccccc1 [CBK263175],"viability at 28.5 h, 10 µM",89.2%
COc1ccc(S(=O)(=O)Nc2ccc(S(=O)(=O)Nc3nccs3)cc2)c([N+](=O)[O-])c1 [CBK266801],"viability at 28.5 h, 10 µM",95.6%
NC(=O)c1c(NC(=S)NC(NC(=O)c2ccco2)C(Cl)(Cl)Cl)sc2c1CCCC2 (centres unmarked) [CBK261055],"viability at 28.5 h, 10 µM",103%
c1ccc(Oc2cccc(C(N3CCOCC3)N3CCOCC3)c2)cc1 [CBK261798],"viability at 28.5 h, 10 µM",104%
Cc1noc(C)c1NC(=O)c1ccnc2ccccc12 [CBK200302],"viability at 28.5 h, 10 µM",96.3%
CC[C@H](Cn1c(=O)oc2ccccc21)NC(=O)C1CCCC1 [CBK284542],"viability at 28.5 h, 10 µM",97.2%
CN(C)CCNC(=O)c1sc2ccccc2c1CC1CCCCCN1C(=O)C1CCC1 (centres unmarked) [CBK286096],"viability at 28.5 h, 10 µM",105%
CCC1CCCCN1C(=O)Cn1cnc2c(Cl)cc(Cl)cc2c1=O (centres unmarked) [CBK305833],"viability at 28.5 h, 10 µM",90%
COc1ccccc1CN1CC[C@H]2[C@@H](C1)[C@H](c1ccsc1)CN2C(=O)c1ccccc1 [CBK285617],"viability at 28.5 h, 10 µM",96%
CCOC(=O)c1c(NC(=O)CN2CCN(c3ccc(F)cc3)CC2)sc2c1CCCC2 [CBK265536],"viability at 28.5 h, 10 µM",88.3%
O=C(Nc1ccc(F)cc1)c1c(NS(=O)(=O)Cc2ccccc2[N+](=O)[O-])sc2c1CCCC2 [CBK028654],"viability at 28.5 h, 10 µM",85.3%
O=S(=O)(NCc1ccccc1)c1ccc(Cl)cc1 [CBK086159],"viability at 28.5 h, 10 µM",86.7%
COc1ccccc1-n1nc(-c2ccncc2)nc1C(C)NS(C)(=O)=O (centres unmarked) [CBK306868],"viability at 28.5 h, 10 µM",98%
CSCCC(NC(=O)NCCc1ccccc1)c1nnc2ccccn12 (centres unmarked) [CBK304417],"viability at 28.5 h, 10 µM",102%
CC1CCCN(C(=O)c2cc(-c3ccccn3)n[nH]2)C1C (centres unmarked) [CBK283146],"viability at 28.5 h, 10 µM",88.5%
O=C(NCCCN1CCc2ccccc2C1)C1CC1c1ccco1 (centres unmarked) [CBK305257],"viability at 28.5 h, 10 µM",91.8%
CC(=O)Nc1cccc(NC(=O)N2CCCC(CO)C2)c1 (centres unmarked) [CBK156049],"viability at 28.5 h, 10 µM",108%
N#CCCN1CCC2(CC1)NCCc1c2[nH]c2ccccc12 [CBK039788],"viability at 28.5 h, 10 µM",89%
CNc1ncnc2c1ncn2C1CC(O)C(CO)O1 (centres unmarked) [CBK201308],"viability at 28.5 h, 10 µM",96.7%
O=S(=O)(Nc1cccc(Cl)c1)c1ccc(Cl)c(Cl)c1 [CBK044636],"viability at 28.5 h, 10 µM",79.3%
Nc1nc(SCc2cccc([N+](=O)[O-])c2)n[nH]1 [CBK268688],"viability at 28.5 h, 10 µM",105%
Cc1ccc(-c2cc(C(=O)NCc3cnn(C)c3)c3cc(Br)ccc3n2)cc1 [CBK293959],"viability at 28.5 h, 10 µM",89.1%
CS(=O)(=O)N(CC(=O)O)c1cccc2ccccc12 [CBK262420],"viability at 28.5 h, 10 µM",101%
COc1ccccc1CN(CC1CCNCC1)C(=O)Nc1c(C)noc1C [CBK049739],"viability at 28.5 h, 10 µM",94.7%
Cn1nccc1CNc1ncn(CC(=O)N2CCCCCC2)n1 [CBK306454],"viability at 28.5 h, 10 µM",90%
N#Cc1c(C(F)(F)F)cc(-c2ccco2)nc1SCc1ccccn1 [CBK267450],"viability at 28.5 h, 10 µM",88.5%
O=C(CCC(=O)N1CCC2(CC1)CC(=O)c1ccccc1O2)NCC1CCCO1 (centres unmarked) [CBK156525],"viability at 28.5 h, 10 µM",86.2%
O=C(Nc1ccc(S(=O)(=O)N2CCCCC2)cc1)c1ccc(CN2CCOCC2)cc1 [CBK264002],"viability at 28.5 h, 10 µM",111%
Cn1nccc1NC(=O)Nc1ccc(CN2CCOC2=O)cc1 [CBK306279],"viability at 28.5 h, 10 µM",88%
COc1ccccc1CN(C)C(=O)Nc1ccc(S(N)(=O)=O)cc1 [CBK306026],"viability at 28.5 h, 10 µM",90.4%
O=C(CN1C2CCC1CC(O)(c1ccco1)C2)NCc1ccccc1 (centres unmarked) [CBK284105],"viability at 28.5 h, 10 µM",94.5%
Cn1cc(CCCCNC(=O)Cc2c[nH]c3ccc(Cl)cc23)cn1 [CBK306364],"viability at 28.5 h, 10 µM",76%
O=C(Nc1sc2c(c1C(=O)O)CCCC2)c1cc2ccccc2o1 [CBK264551],"viability at 28.5 h, 10 µM",91%
CN1CCC(CN(C)Cc2ccc3cccc(Cl)c3n2)C1 (centres unmarked) [CBK282615],"viability at 28.5 h, 10 µM",90.2%
CN1CCC[C@H]1C(=O)N1CCCC2(CCN(Cc3ccccc3)C2)C1 (some centres unmarked) [CBK136901],"viability at 28.5 h, 10 µM",90.7%
Cn1c(=O)[nH]c(=O)c2c1nc(N/N=C/c1cc(Br)ccc1O)n2CCO [CBK139415],"viability at 28.5 h, 10 µM",97.8%
CC(Cc1ccccn1)NC(=O)Cc1ccc2c(c1)CCCO2 (centres unmarked) [CBK282115],"viability at 28.5 h, 10 µM",95%
CCc1nn(CC(=O)N2CCCC2)c(=O)c2cc3sc(C)cc3n12 [CBK284122],"viability at 28.5 h, 10 µM",82.9%
Clc1ccc(CN2CCN(c3nccnc3OC3CCCCC3)CC2)cc1 [CBK082826T],"viability at 28.5 h, 10 µM",101%
O=C(O)C(CCCCN1C(=O)c2ccccc2C1=O)N1C(=O)c2ccccc2C1=O (centres unmarked) [CBK265250],"viability at 28.5 h, 10 µM",91.7%
O=C1NC2(CCN(C(=O)C3CCCC3)CC2)Nc2ccccc21 [CBK283962],"viability at 28.5 h, 10 µM",94.9%
CN(C)c1ccccc1-c1cnc(N2CCOCC2)c2nccn12 [CBK091280],"viability at 28.5 h, 10 µM",90.7%
Cc1noc(C)c1C(=O)Nc1ccc(S(=O)(=O)NCCc2ccccc2)cc1 [CBK268183],"viability at 28.5 h, 10 µM",92.8%
O=C1Nc2ccc(Br)cc2C(=O)N2CCNC[C@H]12 [CBK289583],"viability at 28.5 h, 10 µM",85.1%
COc1n[nH]c(CO)c1Cc1c(Cl)cccc1Cl [CBK092283T],"viability at 28.5 h, 10 µM",97.3%
COC1C(O)C(CO)OC1n1cc(F)c(=O)[nH]c1=O (centres unmarked) [CBK201253],"viability at 28.5 h, 10 µM",91.4%
CN1CCCN(Cc2ccc3c(c2)c(=O)c(C(=O)NCc2ccc(Cl)cc2)cn3C)CC1 [CBK018019],"viability at 28.5 h, 10 µM",82.8%
O=C(NCCc1ccc(O)cc1)c1ccc2nc[nH]c2c1 [CBK153323],"viability at 28.5 h, 10 µM",106%
Cn1c(N2CCOCC2)nc2cc(C(=O)NCCn3cccn3)ccc21 [CBK307033],"viability at 28.5 h, 10 µM",87.5%
O=C(N[C@H]1C[C@H]2C(=O)NC[C@@H](CCC(=O)N3CCCCC3)N2C1)c1cccc(F)c1 [CBK289011],"viability at 28.5 h, 10 µM",85%
CC(C)N1CCC(N(C)Cc2c[nH]nc2C(C)(C)C)CC1 [CBK283002],"viability at 28.5 h, 10 µM",92.9%
CC(C)c1cccc(-n2cc(O)c(C(=O)NCCCn3cccn3)n2)c1 [CBK305360],"viability at 28.5 h, 10 µM",113%
Cc1ccc(C)c(C2CCCN2C(=O)Cn2cccc(C(=O)NCc3ccccc3)c2=O)c1 (centres unmarked) [CBK286062],"viability at 28.5 h, 10 µM",78.5%
Cc1cccc(-c2ncc(NC(=O)c3ccccn3)nc2-c2ccc(N)cc2)c1 [CBK036694],"viability at 28.5 h, 10 µM",93.3%
COc1cc2c(cc1OC)C1=NNC(=O)C1=NC(C)(C)C2 [CBK288353],"viability at 28.5 h, 10 µM",22.3%
Cc1cc(COC(=O)NCc2ccncc2)cc(C)n1 [CBK200136],"viability at 28.5 h, 10 µM",99.4%
O=C(CSc1nnc(-c2ccncc2)n1-c1ccccc1)N/N=C/c1coc2ccccc2c1=O [CBK262866],"viability at 28.5 h, 10 µM",101%
COc1cccc2sc(Nc3nnc(-c4cccs4)o3)nc12 [CBK287473],"viability at 28.5 h, 10 µM",85.4%
Cc1ccc(-n2cc(-c3ccccc3)[nH]c2=O)cc1 [CBK288103],"viability at 28.5 h, 10 µM",101%
COc1cccc(Cc2c(C)nc3c(C(=O)NCCCN4CCCC4=O)cnn3c2C)c1 [CBK162055],"viability at 28.5 h, 10 µM",111%
O=C(c1cccs1)[C@H]1CCCN(C(=O)c2cc(C3CC3)n[nH]2)C1 [CBK282411],"viability at 28.5 h, 10 µM",85.3%
O=S(=O)(Cc1csc(N2CCOCC2)n1)c1ccccn1 [CBK011137],"viability at 28.5 h, 10 µM",90.1%
Cc1ccc([N+](=O)[O-])cc1NC(=O)C1CCCN1S(=O)(=O)c1ccc(Cl)cc1 (centres unmarked) [CBK033769],"viability at 28.5 h, 10 µM",95.7%
Cc1[nH]nc(C(F)(F)F)c1Cl [CBK025387],"viability at 28.5 h, 10 µM",113%
COc1ccccc1C1(O)CCN(CC(O)c2ccc(C(C)(C)C)cc2)CC1 (centres unmarked) [CBK286335],"viability at 28.5 h, 10 µM",96.2%
NCC(=O)Nc1ccc(F)c(F)c1 [CBK046313],"viability at 28.5 h, 10 µM",103%
COc1ccc(NC(=O)Cc2csc(NC(=O)c3ccco3)n2)c(OC)c1 [CBK287649],"viability at 28.5 h, 10 µM",91.7%
Cc1cc2ccccc2n2c(=O)n(Cc3cscn3)nc12 [CBK282381],"viability at 28.5 h, 10 µM",102%
COc1cccc(OCC(=O)O/N=C(\N)c2ccncc2)c1 [CBK262592],"viability at 28.5 h, 10 µM",91.6%
Cc1ccc(COc2cc(C(=O)NCc3ccccn3)c3ccccc3n2)cc1 [CBK294403],"viability at 28.5 h, 10 µM",112%
